Measurements: patent US9028845B2, “Chimeric immunomodulatory compounds and methods of using the same-IV” (Dynavax Technologies Corporation, priority 2001, dated 2015)

Tests used:
CD19+ B cells = assay: Human B cell proliferation assay (3H-thymidine incorporation); details: B cells, 2 μg/ml, Experiment B
mice = assay: Serum cytokines (IL-12 p40, IL-6, TNF-α) after subcutaneous injection in mice; type: in vivo; details: 20 ug subcutaneous
Protocol: Blood was collected 2 hours later. For the LPS positive control group, mice were injected intraperitoneally with a 200 ul volume, and blood was collected 1.5 hours later (i.e., at the peak of LPS induced TNF-α activity). The blood was clotted and the serum was prepared and stored at −80° C. until assayed. Serum cytokines were assayed using Biosource cytoscreen kits for TNF-α and Pharmingen antibody pairs for mIL-6 and mIL-12. All samples were assayed in duplicate.

mouse lung = assay: Induction of immune-associated genes in the mouse lung after intranasal treatment (quantitative PCR); type: in vivo, BALB/c mice; details: 20 ug intranasal, 6 hrs; vs P-7 treated mice
Protocol: The genes evaluated included genes encoding cytokines, chemokines, cell surface molecules, transcription factors, metalloproteases, and other molecules. The study was performed at Northview Pacific Laboratories (Hercules, Calif.) with 6-8 week old female BALB/c mice from Jackson Labs (Bar Harbor, Me.). […] Therefore, at 6 hrs the lungs were harvested and snap-frozen in liquid nitrogen and stored at −80° C. for later use. Total RNA was isolated using RNeasy mini kits (Qiagen Inc., Valencia, Calif.). The RNA samples were DNAse-treated (Roche Diagnostics, Mannheim, Germany) and converted into cDNA using Superscript II Rnase H-Reverse Transcriptase (Invitrogen, Rockville Md.) as described in Scheerens et al., 2001, Eur. J. of Immunology 31:1465-74. The cDNA samples were pooled per group and in each pooled sample the expression of mRNA of 75 genes was measured using real-time quantitative PCR (ABI Prism 5700, Perkin Elmer Applied Biosystems) and syber green (Qiagen Inc.). In addition to the genes of interest, in each sample the mRNA expression of a housekeeping gene was measured (HPRT or ubiquitin). In order to correct for the amount of RNA in each sample, all data were calculated relative to the expression of the housekeeping gene.

human PBMCs = assay: Human PBMC cytokine response assay (IFN-γ and IFN-α in cell-free medium by ELISA), with or without cPLGA; type: cell-based;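 for IFN-α (pg/ml) mean: 20 µg/mL compound for 24 hours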;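 for IFN-γ (pg/ml) mean: 20 µg/mL compound for 24 hours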
[1] = donor 28066, 20 ug/ml, 24 h, + PLGA = premixed with 100 μg/ml cPLGA
[2] = donor 28067, 20 ug/ml, 24 h, + PLGA = premixed with 100 μg/ml cPLGA
[3] = donor 28068, 20 ug/ml, 24 h, + PLGA = premixed with 100 μg/ml cPLGA
[4] = mean of donors 28065-28068, 20 ug/ml, 24 h, + PLGA = premixed with 100 μg/ml cPLGA
[5] = mean of donors 28185-28188, Table 15

Substance: 5′-TCGTCG-3′-HEG-5′-AACGTT-3′-HEG-5′-AGATGAT-3′ [Compound C-23]
- cpm1 (CD19+ B cells; donor 121): 10628 cpm
- cpm2 (CD19+ B cells; donor 121): 16221 cpm
- cpm3 (CD19+ B cells; donor 121): 20087 cpm
- mean cpm (CD19+ B cells; donor 121 mean): 15645 cpm
- cpm1 (CD19+ B cells; donor 194): 8730 cpm
- cpm2 (CD19+ B cells; donor 194): 6532 cpm
- cpm3 (CD19+ B cells; donor 194): 9596 cpm
- mean cpm (CD19+ B cells; donor 194 mean): 8286 cpm
- mean of both (CD19+ B cells; mean of donors 121 and 194): 11966 cpm
- potency in serum cytokine induction compared with other compounds, in words (mice): more potent than C-9 and P-6
- induction of serum IL-12 p40, IL-6 and TNF-α, in words (mice; blood 2 hours later): induced IL-12 p40, IL-6, and TNF-α
- mRNA expression of immune-associated genes in the lung, in words (mouse lung): potently induce the expression of a variety of genes
- IFN-α (human PBMCs; Table 13, donor 28156): 26 pg/mL
- IFN-γ (human PBMCs; Table 13, donor 28156): 733 pg/mL
- IFN-α (human PBMCs; Table 13, donor 28157): 235 pg/mL
- IFN-γ (human PBMCs; Table 13, donor 28157): 576 pg/mL
- IFN-α (human PBMCs; Table 13, donor 28158): 59 pg/mL
- IFN-γ (human PBMCs; Table 13, donor 28158): 202 pg/mL
- IFN-α (human PBMCs; Table 13, donor 28159): 169 pg/mL
- IFN-γ (human PBMCs; Table 13, donor 28159): 295 pg/mL
- IFN-α mean (human PBMCs; Table 13, mean of donors): 122 pg/mL
- IFN-γ mean (human PBMCs; Table 13, mean of donors): 452 pg/mL
- IFN-γ (pg/ml) 28065 (human PBMCs; donor 28065 (high background), 20 ug/ml, 24 h, + PLGA = premixed with 100 μg/ml cPLGA, 1000 = outside assay limits): 438 pg/mL
- IFN-α (pg/ml) 28065 (human PBMCs; donor 28065, 20 ug/ml, 24 h, + PLGA = premixed with 100 μg/ml cPLGA): 52 pg/mL
- IFN-α (pg/ml) 28066 (human PBMCs; [1]): 3 pg/mL
- IFN-γ (pg/ml) 28066 (human PBMCs; [1]): 5 pg/mL
- IFN-α (pg/ml) 28067 (human PBMCs; [2]): 19 pg/mL
- IFN-γ (pg/ml) 28067 (human PBMCs; [2]): 6 pg/mL
- IFN-α (pg/ml) 28068 (human PBMCs; [3]): 137 pg/mL
- IFN-γ (pg/ml) 28068 (human PBMCs; [3]): 238 pg/mL
- IFN-a (human PBMCs; donor 28185, Table 15): 83 pg/mL
- IFN-g (human PBMCs; donor 28185, Table 15): 42 pg/mL
- IFN-a (human PBMCs; donor 28186, Table 15): 27 pg/mL
- IFN-g (human PBMCs; donor 28186, Table 15): 14 pg/mL
- IFN-a (human PBMCs; donor 28187, Table 15): 59 pg/mL
- IFN-g (human PBMCs; donor 28187, Table 15): 29 pg/mL
- IFN-a (human PBMCs; donor 28188, Table 15): 55 pg/mL
- IFN-g (human PBMCs; donor 28188, Table 15): 3 pg/mL
- IFN-α (pg/ml) mean (human PBMCs; [4]): 53 pg/mL
- IFN-γ (pg/ml) mean (human PBMCs; [4]): 172 pg/mL
- IFN-a (pg/ml) mean (human PBMCs; [5]): 56 pg/mL
- IFN-g (pg/ml) mean (human PBMCs; [5]): 22 pg/mL
- IFN-a (pg/ml) ×2 (human PBMCs; mean ×2, Table 15): 112 pg/mL
- IFN-g (pg/ml) ×4 (human PBMCs; mean ×4, Table 15): 88 pg/mL
